According to patent publication US7476673B2, “Disubstituted chalcone oximes as selective agonists of RARγ retinoid receptors” (Allergan, Inc., priority 2003, dated 2009):

What was measured:
[1] = target: T1, RARβ (Homo sapiens, UniProt P10826); test: ligand binding assay, RARβ; settings: results expressed in Ki numbers, read-out: RAR Binding β
T1 sequence (P10826 1-455): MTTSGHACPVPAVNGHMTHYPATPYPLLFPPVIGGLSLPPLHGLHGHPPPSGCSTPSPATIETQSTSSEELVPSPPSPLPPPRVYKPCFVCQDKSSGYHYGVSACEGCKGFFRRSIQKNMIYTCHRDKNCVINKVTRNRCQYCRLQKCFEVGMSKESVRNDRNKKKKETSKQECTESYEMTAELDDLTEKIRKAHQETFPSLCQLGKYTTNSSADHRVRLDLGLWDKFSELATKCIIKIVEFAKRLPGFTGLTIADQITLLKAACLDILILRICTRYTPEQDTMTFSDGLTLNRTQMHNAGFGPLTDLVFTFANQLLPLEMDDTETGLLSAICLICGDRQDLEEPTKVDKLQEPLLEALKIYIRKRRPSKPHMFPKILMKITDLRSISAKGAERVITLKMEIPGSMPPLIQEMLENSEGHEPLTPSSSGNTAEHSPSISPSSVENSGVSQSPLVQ
Source text: (§1) A holoreceptor transactivation assay and a ligand binding assay which measure the antagonist/agonist like activity of the compounds of the invention, or their ability to bind to the several retinoid receptor subtypes, respectively, are described in published PCT Application No. WO WO93/11755 (particularly on pages 30-33 and 37-41) published on Jun. 24, 1993, the specification of which is also incorporated herein by reference. A detailed experimental procedure for holoreceptor transactivations has been described by Heyman et al. Cell 68, 397-406, (1992); Allegretto et al. J. Biol. Chem. 268, 26625-26633, and Mangelsdorf et al. The Retinoids: Biology, Chemistry and Medicine, pp 319-349, Raven Press Ltd., New York, which are expressly incorporated herein by reference. The results obtained in this assay are expressed in EC50 numbers, as they are also in the chimeric receptor transactivation assay. The results of the ligand binding assay are expressed in Ki numbers. (See Cheng et al. Biochemical Pharmacology Vol. 22 pp 3099-3108, expressly incorporated herein by reference.)
(§2) Table 1 discloses the activity of certain exemplary compounds of the invention in the above-described chimeric RAR receptor transactivation and binding assays.

[2] = target: T2, RARβ (Homo sapiens, UniProt P10826); test: chimeric receptor transactivation assay, RARβ; type: cell-based; settings: for EC50: chimeric receptor transactivation, read-out: RAR EC50 β; for % Efficiency β: percentage of maximum compared to standard TTNPB
T2 sequence (P10826 183-455 limits assumed): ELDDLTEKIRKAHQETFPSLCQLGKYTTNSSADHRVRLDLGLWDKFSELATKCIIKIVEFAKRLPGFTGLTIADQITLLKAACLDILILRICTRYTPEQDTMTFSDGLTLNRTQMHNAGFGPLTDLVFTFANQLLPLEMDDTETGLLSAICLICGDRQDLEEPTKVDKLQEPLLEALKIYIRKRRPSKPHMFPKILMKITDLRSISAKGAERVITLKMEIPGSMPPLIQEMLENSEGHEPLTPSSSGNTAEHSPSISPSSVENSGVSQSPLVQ
Experimental: (§3) The compounds of the invention were tested in certain assays for activity as agonists of RAR and RXR retinoid receptors. Specifically, one such assay is a chimeric receptor transactivation assay which tests for agonist-like activity in the RARα, RARβ and RARγ receptor subtypes, and which is based on work published by Feigner P. L. and Holm M. (1989) Focus, 112 is described in detail in U.S. Pat. No. 5,455,265. The specification of U.S. Pat. No. 5,455,265 is hereby expressly incorporated by reference.
as §1
(§4) Efficacy in a transactivation assay is expressed as a percentage of the maximum potency attained by the compound compared to a standard which, in this case, is the compound 4-[(1E)-2-(5,6,7,8-tetrahydro-5,5,8,8-tetramethyl-2-naphthalenyl)-1-propenyl]-benzoic acid. (TTNPB) This standard compound is described in PCT Publication WO 2002077169 A2.
as §2

[3] = target: T3, RARα (Homo sapiens, UniProt P10276); test: ligand binding assay, RARα; settings: results expressed in Ki numbers, read-out: RAR Binding α
T3 sequence (P10276 1-462): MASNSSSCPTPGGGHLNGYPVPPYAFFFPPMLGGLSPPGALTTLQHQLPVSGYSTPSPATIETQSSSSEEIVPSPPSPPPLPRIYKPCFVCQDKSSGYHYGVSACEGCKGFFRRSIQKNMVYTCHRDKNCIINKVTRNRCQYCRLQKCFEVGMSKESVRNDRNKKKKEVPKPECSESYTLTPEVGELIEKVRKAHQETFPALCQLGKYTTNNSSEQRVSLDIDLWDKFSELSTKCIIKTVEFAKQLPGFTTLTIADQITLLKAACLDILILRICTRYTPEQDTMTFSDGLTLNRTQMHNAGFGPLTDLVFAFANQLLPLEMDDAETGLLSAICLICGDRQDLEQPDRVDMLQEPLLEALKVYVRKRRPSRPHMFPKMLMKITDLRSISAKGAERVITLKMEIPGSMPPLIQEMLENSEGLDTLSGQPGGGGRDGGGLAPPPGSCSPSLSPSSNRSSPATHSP
Source text: as §1, §2

[4] = target: T4, RARγ (Homo sapiens, UniProt P13631); test: chimeric receptor transactivation assay, RARγ; type: cell-based; settings: for EC50: chimeric receptor transactivation, read-out: RAR EC50 γ; for % Efficiency γ: percentage of maximum compared to standard TTNPB
T4 construct: % Efficiency γ; other: percentage of maximum compared to standard TTNPB
T4 sequence (P13631 185-454 limits assumed): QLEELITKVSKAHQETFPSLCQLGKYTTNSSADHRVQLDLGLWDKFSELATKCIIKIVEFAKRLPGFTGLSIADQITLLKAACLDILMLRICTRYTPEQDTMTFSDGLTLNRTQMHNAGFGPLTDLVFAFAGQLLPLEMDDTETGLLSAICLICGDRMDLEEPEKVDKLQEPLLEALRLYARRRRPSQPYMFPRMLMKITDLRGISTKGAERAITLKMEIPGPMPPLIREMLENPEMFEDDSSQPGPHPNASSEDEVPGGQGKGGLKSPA
Experimental: as §3, §1, §4, §2

[5] = target: T5, RARα (Homo sapiens, UniProt P10276); test: chimeric receptor transactivation assay, RARα; type: cell-based; settings: for EC50: chimeric receptor transactivation, read-out: RAR EC50 α; for % Efficiency α: percentage of maximum compared to standard TTNPB
T5 sequence (P10276 183-417 limits assumed): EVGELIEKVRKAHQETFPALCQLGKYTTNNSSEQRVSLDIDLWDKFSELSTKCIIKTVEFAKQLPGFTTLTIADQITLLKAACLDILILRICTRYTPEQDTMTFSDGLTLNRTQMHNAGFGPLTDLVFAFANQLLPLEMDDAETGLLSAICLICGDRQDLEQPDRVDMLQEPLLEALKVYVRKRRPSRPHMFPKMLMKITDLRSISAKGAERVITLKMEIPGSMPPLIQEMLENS
Experimental: as §3, §1, §4, §2

[6] = target: T6, RARγ (Homo sapiens, UniProt P13631); test: ligand binding assay, RARγ; settings: results expressed in Ki numbers, read-out: RAR Binding γ
T6 sequence (P13631 1-454): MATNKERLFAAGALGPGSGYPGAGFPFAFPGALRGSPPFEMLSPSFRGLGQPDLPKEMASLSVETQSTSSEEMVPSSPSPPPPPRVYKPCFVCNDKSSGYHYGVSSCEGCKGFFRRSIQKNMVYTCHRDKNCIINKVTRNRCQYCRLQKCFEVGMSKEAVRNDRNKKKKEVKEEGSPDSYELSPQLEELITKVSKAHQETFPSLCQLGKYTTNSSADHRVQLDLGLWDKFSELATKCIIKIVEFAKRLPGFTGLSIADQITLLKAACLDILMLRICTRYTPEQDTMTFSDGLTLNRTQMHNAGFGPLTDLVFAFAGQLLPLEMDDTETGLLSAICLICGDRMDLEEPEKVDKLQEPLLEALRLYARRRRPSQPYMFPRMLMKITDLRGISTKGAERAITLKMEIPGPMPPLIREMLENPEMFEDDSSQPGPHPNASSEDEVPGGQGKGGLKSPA
Source text: as §1, §2

SMILES	Ki [1]	EC50 [2]	% Efficiency β [2]	Ki [3]	EC50 [4]	% Efficiency γ [4]	EC50 [5]	% Efficiency α [5]	Ki [6]
CC1(C)CC(C)(C)c2cc(C(C=Cc3ccc(C(=O)O)cc3)=NO)ccc2O1 [drawing 25]	5000 nM	93 nM	97%	5000 nM	57 nM	95%	135 nM	60%	10000 nM
CC1(C)CCC(C)(C)c2cc(C(C=Cc3ccc(C(=O)O)cc3)=NO)ccc21 [drawing 9]	2000 nM	34 nM	112%	2400 nM	0.37 nM	114%	150 nM	81%	14 nM
CC1(C)CC(C)(C)c2cc(C(C=Cc3ccc(C(=O)O)cc3)=NO)ccc2O1 [drawing 24]	> 10000 nM	> 10000 nM	–	> 10000 nM	> 10000 nM	–	> 10000 nM	–	> 10000 nM
CC1(C)CCCc2ccc(C(/C=C/c3ccc(C(=O)O)cc3F)=N/O)cc21	1200 nM	62 nM	133%	5200 nM	44 nM	97%	118 nM	39%	46 nM
CC1=CCC(C)(C)c2cc(C(/C=C/c3ccc(C(=O)O)cc3)=N/O)ccc21	1300 nM	54 nM	95%	3000 nM	0.3 nM	91%	7000 nM	38%	6 nM
CC1(C)CC(C)(C)c2cc(C(C=Cc3ccc(C(=O)O)cc3)=NO)ccc21 [drawing 30]	17000 nM	83 nM	104%	7000 nM	0.2 nM	71%	148 nM	55%	6 nM
CC1(C)CCC(C)(C)c2cc(C(C=Cc3ccc(C(=O)O)cc3)=NO)ccc21 [drawing 8]	1300 nM	31 nM	102%	2500 nM	0.09 nM	103%	441 nM	81%	3 nM
CC1(C)CCSc2ccc(C(/C=C/c3ccc(C(=O)O)cc3F)=N\O)cc21	10000 nM	503 nM	45%	10000 nM	21 nM	120%	> 1000 nM	–	19 nM
CC1(C)CCC(C)(C)c2nc(C(C=Cc3ccc(C(=O)O)cc3)=NO)cnc21 [drawing 34]	–	105 nM	88%	27000 nM	10 nM	123%	4000 nM	41%	240 nM
CC1(C)CCC(C)(C)c2nc(C(C=Cc3ccc(C(=O)O)cc3)=NO)cnc21 [drawing 35]	–	77 nM	110%	25000 nM	143 nM	151%	128 nM	54%	461 nM
CCCCCCCN1C(=O)CC(C)(C)c2cc(C(C=Cc3ccc(C(=O)O)cc3)=NO)ccc21	29000 nM	–	–	11000 nM	10 nM	11%	> 1000 nM	–	51 nM
